Columns and labels:
[1] = Excipient compatibility: ethylene sulfide in 1:1 blends of compound 1 and excipient; type: physicochemical; conditions: 1:1 weight ratio of compound 1 and excipient, glass vials, gentle rotation 30 minutes, ambient conditions
Protocol: Excipient compatibility of compound 1 with various excipients was determined. Samples of a 1:1 weight ratio of compound 1 and each excipient were blended in glass vials. The vials were subjected to gentle rotation to 30 minutes at ambient conditions. Samples were assayed for ethylene sulfide. Table 3 below presented the results for a selected group of the excipients evaluated: […]

[2] = Open-label randomized cross-over single-dose pharmacokinetic study, tablet vs liquid filled capsule; type: in vivo, human; conditions: 50 mg single doses (tablet and capsule), healthy male subjects
Protocol: A lot of tablets manufactured under cGMP conditions utilizing the composition of Example 3 (with appropriate adjustment of the weight % of PROSOLV SMCC 90 to account for the potency of Compound 1) were utilized in a pharmacokinetic study. The human clinical study was study performed in conformance with the Declaration of Helsinki and approved by a local Ethics Committee. An open-label randomized cross-over single-dose pharmacokinetic effect study was conducted in 12 healthy male subjects (ages 19-65) to compare the relative exposure of the tablet composition (50 mg compound 1) as compared to the liquid filled capsule composition (50 mg of compound 1) in the fasted state. In addition, an un-randomized third period followed the first two periods in which all 12 subjects were dosed with the tablet composition (50 mg compound 1) in the fed state, and 8 of the 12 subjects returned for a fourth period in which the 8 subjects were dosed with the liquid filled capsule composition (50 mg compound 1) in the fed state. Plasma samples for pharmacokinetic (PK) analysis were taken over a period of 120 h after dosing during each treatment period. Dosing days were at least 6 days apart (Period 1, days 1 to 6; Period 2, days 7 to 13, Period 3, days 14 to 20; and Period 4 followed the initial three periods). […] The pharmacokinetic samples were assayed for 2′-C-methyl-guanosine as well as compound 1.

HCV replication = conditions: in-vitro assays, as described in U.S. Pat. No. 7,951,789; cited from earlier work

CC(C)(CO)C(=O)SCCOP(=O)(NCc1ccccc1)OC[C@H]1O[C@@H](n2cnc3c(=O)[nH]c(N)nc32)C(C)(O)C1O (stereo partly drawn) [Compound 1, 2′-C-methyl-guanosine, 5′-[2-[(3-hydroxy-2,2-dimethyl-1-oxopropyl)thio]ethyl N-(phenylmethyl)phosphoramidate]]
ppm Ethylene Sulfide Mean of 4 samples [1]: <9 ppm
serious adverse events [2]: No serious adverse events were reported
inhibition of HCV replication (in words) (HCV replication): ability to inhibit HCV replication

From US20130217644A1, “Pharmaceutical Compositions of 2'-C-Methyl-Guanosine, 5'-[2[(3-Hydroxy-2,2-Dimethyl-1-Oxopropyl)Thio]Ethyl N-(Phenylmethyl)Phosphoramidate]” (IDENIX PHARMACEUTICALS, INC., priority 2012, published 2013)
